According to patent US20240092800A1, “USP13 INHIBITORS AND METHODS OF USE THEREOF” (GEORGETOWN UNIVERSITY, priority 2021, published 2024):

How the values were obtained:
Nissl+ cells = experiment: Nissl staining neuron counts in TgA53T mice; assay type: in vivo, mouse; conditions: 40 mg/Kg I.P. daily for 7 days, vs DMSO
Experimental: Immunohistology. Animals were deeply anesthetized with a mixture of xylazine and ketamine (1:8), washed with normal saline for 1 min and then perfused with 4% paraformaldehyde (PFA) for 15-20 min. Brains were quickly dissected out and immediately stored in 4% PFA for 24 h at 4° C. and then transferred to 30% sucrose at 4° C. for 48 h. Brains were cut using a cryostat microtome into 20 μm thick coronal sections and stored at −20° C.
Nissl and Silver Staining. Nissl staining was performed using FD Cresyl Violet Solution™ Regular Strength (FD NeuroTechnologies, Cat PS102-01) as per manufacturer's instructions. Silver staining was performed using FD NeuroSilver™ (FD NeuroTechnologies, Cat PK301,) as per manufacturer's instructions.

[1] = test system: alpha-synuclein ubiquitination; experiment: Alpha-synuclein ubiquitination in TgA53T mice (IP/WB, immunostaining co-localization); assay type: in vivo, mouse; conditions: midbrain extracts, 40 mg/kg compared to DMSO and 10 mg/kg
Experimental: Immunoprecipitation (IP). Mouse brain tissues were homogenized in 1×STEN buffer, and the soluble fraction was isolated as indicated above. The lysates were pre-cleaned with immobilized recombinant protein A/G agarose (Santa Crutz, sc-2003, Dallas, TX, USA) and centrifuged at 2500×g for 1 min at 4° C. The supernatant was recovered and quantified by protein assay, and a total of 300 μg protein was incubated overnight at 4° C. with primary anti-alpha-synuclein (1:200, Thermofisher, AHB0261) mouse antibodies or anti-ubiquitin (1:100) (Thermo Fisher, PA3-16717, Rockford, IL, USA) antibodies in the presence of sepharose G and an IgG control with primary antibodies. The immunoprecipitates were collected by centrifugation at 2500×g for 3 min at 4° C., washed 5× in PBS, with spins of 3 min, 2500×g using detergent-free buffer for the last washing step, and the proteins were eluted according to Pierce instructions (Pierce #20365, Rockford, IL, USA). […]
Immunohistochemistry was performed on the 20 μm thick brain sections for evaluation of ubiquitination of alpha-synuclein. […] The optic densitometry of co-localization of ubiquitin with alpha-synuclein was measured using Image J. Tyrosine hydroxylase (TH) is the limiting enzyme in DA synthesis, so probing for TH+ neurons will help to evaluate the status of DA producing neurons in the SN and their terminals in the striatum. […]

human USP13 = biological target: T1, human USP13 (Homo sapiens, UniProt Q92995); experiment: USP13 activity via ELISA in SHSY5Y cells; assay type: cell-based
T1 construct: USP13 activity via ELISA in human SHSY5Y neuroblastoma cells; endogenous in cells; host or cells: human SH-SY5Y neuroblastoma cells (transiently transfected with human wild-type alpha-synuclein, not with USP13)
T1 sequence (Q92995 1-863): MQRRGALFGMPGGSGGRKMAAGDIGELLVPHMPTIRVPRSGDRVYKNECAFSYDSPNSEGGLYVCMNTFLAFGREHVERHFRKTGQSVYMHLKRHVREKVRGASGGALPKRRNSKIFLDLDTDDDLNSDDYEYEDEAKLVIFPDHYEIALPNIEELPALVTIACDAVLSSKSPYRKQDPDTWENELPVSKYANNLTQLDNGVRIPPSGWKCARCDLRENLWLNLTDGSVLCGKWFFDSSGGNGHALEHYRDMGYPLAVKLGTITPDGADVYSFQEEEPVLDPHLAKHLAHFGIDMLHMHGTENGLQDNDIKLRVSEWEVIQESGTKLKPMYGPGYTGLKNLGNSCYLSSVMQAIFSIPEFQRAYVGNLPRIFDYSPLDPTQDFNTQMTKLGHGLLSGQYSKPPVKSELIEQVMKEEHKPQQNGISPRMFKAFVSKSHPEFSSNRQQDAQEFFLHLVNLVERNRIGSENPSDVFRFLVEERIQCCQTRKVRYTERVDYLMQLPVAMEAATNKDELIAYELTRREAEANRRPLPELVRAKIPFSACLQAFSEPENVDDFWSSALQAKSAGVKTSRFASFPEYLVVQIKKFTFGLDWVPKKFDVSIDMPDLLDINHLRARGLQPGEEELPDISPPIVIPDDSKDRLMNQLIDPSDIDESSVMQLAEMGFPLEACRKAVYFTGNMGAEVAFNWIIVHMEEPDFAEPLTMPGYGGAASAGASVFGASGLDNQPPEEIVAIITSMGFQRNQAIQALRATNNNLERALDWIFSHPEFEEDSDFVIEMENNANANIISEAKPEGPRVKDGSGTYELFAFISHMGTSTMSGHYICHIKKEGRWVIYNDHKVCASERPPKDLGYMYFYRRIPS
Experimental: Cell lines, transfection, and treatment.
A total of 25 μL soluble protein was incubated overnight at 4° C. with 25 μL of a mixed bead solution. After washing, samples were incubated with 25 μL detection antibody solution for 1.5 hours at room temperature. Streptavidin-phycoerythrin (25 μL) was added to each well containing the 25 μL of detection antibody solution. Samples were then washed and suspended in 100 μL of sheath fluid. Samples were then run on MAGPIX with Xponent software. The median fluorescent intensity (MFI) data were analyzed using a 5-parameter logistic or spline curve-fitting method for calculating analyte concentrations in samples. Specific alpha-synuclein ELISAs were performed on tissue soluble extracts from midbrain lysates in 1XSTEN buffer. The ELISA for USP13 (MyBioSource, Cat # MBS9335287), Human alpha-synuclein (Biolegend, Cat #844101) and specific p-Tau ser396 (Invitrogen, KHB7031) were performed on cell or brain tissue extracts as described above according to manufacturers' protocol.
Statistical and Data Analysis. All statistical analyses were performed using GraphPad Prism version 5.0 (GraphPad software, Inc, San Diego, CA, USA). Two-tailed student's t-test was used in comparison of means of two groups. Ordinary one-way analysis of variance (ANOVA) followed by Newman-Keuls or Dunnett comparison post hoc tests were used in comparison of means of multiple groups. Asterisks denote actual p-value significances (*<0.05, **<0.01, ***<0.001 and ****<0.0001), and N is the number of animals or the number of independent experiments (cell culture) per group. Unless otherwise indicated, data are expressed as Mean±SD. IC50 to USP13 levels was also estimated using GraphPad Prism version 5.0 (GraphPad software, Inc, San Diego, CA, USA).

Fc1ccc2nccc(OCc3ccccc3)c2c1 [4-(Benzyloxy)-6-fluoroquinoline]
neuron counts (Nissl+ cells) (Nissl+ cells; cortex): significantly increased neuron counts | neuron counts (Nissl+ cells) (Nissl+ cells; striatum): significantly increased neuron counts | neuron counts (Nissl+ cells) (Nissl+ cells; substantia nigra (SN)): significantly increased neuron counts | alpha-synuclein ubiquitination by immunoprecipitation and WB [1]: increased ubiquitination | IC50 (human USP13; SHSY5Y cell line, estimated with GraphPad Prism, read-out: IC50 to inhibit USP13 activity): 78 nM | USP13 activity via ELISA (human USP13; SHSY5Y cells, 5 hours, concentration range of 1 nM-1 mM): significantly reduce the activity of human USP13
